Values joined by “and” are separate entries in the source; they are usually repeats but may differ in a detail not shown here. Equal entries are not always repeated.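 Where inhibition never reached the appropriate level, the endpoint shown equals the highest concentration tested. Otherwise, values were interpolated linearly from a five-concentration, 48-hour dose response in 96-well plates. The concentration for 50% growth inhibition is given as GI50. TGI is the concentration that stops growth completely.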
Key:
Test in all cases: inhibition of tumour cell growth, NCI panel, 48 h
CCRF-CEM leukemia = system: CCRF-CEM leukemia
EKVX NSCLC = system: EKVX NSCLC
HCC-2998 colon = system: HCC-2998 colon
HL-60(TB) leukemia = system: HL-60(TB) leukemia
HT29 colon = system: HT29 colon
NCI-H226 lung = system: NCI-H226 lung
NCI-H23 lung = system: NCI-H23 lung
NCI-H460 lung = system: NCI-H460 lung
PC-3 prostate = system: PC-3 prostate
UACC-257 melanoma = system: UACC-257 melanoma

| SMILES | GI50 (CCRF-CEM leukemia) | TGI (CCRF-CEM leukemia) | GI50 (EKVX NSCLC) | TGI (EKVX NSCLC) | GI50 (HCC-2998 colon) | TGI (HCC-2998 colon) | GI50 (HL-60(TB) leukemia) | TGI (HL-60(TB) leukemia) | GI50 (HT29 colon) | TGI (HT29 colon) | GI50 (NCI-H226 lung) | TGI (NCI-H226 lung) | GI50 (NCI-H23 lung) | TGI (NCI-H23 lung) | GI50 (NCI-H460 lung) | TGI (NCI-H460 lung) | GI50 (PC-3 prostate) | TGI (PC-3 prostate) | GI50 (UACC-257 melanoma) | TGI (UACC-257 melanoma) |
| --- | --- | --- | --- | --- | --- | --- | --- | --- | --- | --- | --- | --- | --- | --- | --- | --- | --- | --- | --- | --- |
| COc1ccc2c(c1)C(=O)c1c-2c(OCCN2CCCCC2)nc2ccc(OC)cc12 | 0.197 µM | 2.66 µM | 1 µM | 4.12 µM | 1.23 µM | 9.24 µM | 1.08 µM | 6.64 µM | 0.435 µM | 2.7 µM | 0.705 µM | 2.82 µM | 1.12 µM | 7.68 µM | 0.286 µM | 1.1 µM | 2.33 µM | 21.3 µM | 2.07 µM | 6.9 µM |
| CNC(=O)c1cc(Oc2ccc3nc(NC(=O)Nc4cc(C(F)(F)F)cc(C(F)(F)F)c4)sc3c2)ccn1 | 1.07 µM | 5.83 µM | 1.28 µM | 4.56 µM | 1.33 µM | 3.23 µM | 1.6 µM | 4.17 µM | 1.21 µM | 2.73 µM | 1.45 µM | 3.57 µM | 0.573 µM | 2.38 µM | 1.23 µM | 2.85 µM | 0.611 µM | 2.29 µM | 1.15 µM | 2.62 µM |
| O=C(c1ccccc1)c1c2n(c3c1cc(O)c1ccccc13)CCN2 | 1.99 µM | 4.67 µM | 8.63 µM | 22.5 µM | 6.11 µM | 18.9 µM | 2.17 µM | 4.47 µM | 3.67 µM | 15.5 µM | 18.6 µM | 41.3 µM | 4.17 µM | 12 µM | 4.7 µM | 15.8 µM | 2.69 µM | 13 µM | 1.91 µM | 3.4 µM |
| N/C(=N\C(N)=N\c1nc2ccccc2s1)c1ccnc(Br)c1 | 3.7 µM | > 100 µM | 30.4 µM | > 100 µM | 66 µM | > 100 µM | 3.02 µM | > 100 µM | 3.55 µM | > 100 µM | 15.9 µM | > 100 µM | 14.2 µM | > 100 µM | 4.33 µM | > 100 µM | 4.61 µM | > 100 µM | > 100 µM | > 100 µM |
| COc1ccc(Nc2ncccc2C(=O)NCc2cn(Cc3cccc(Oc4ccccc4)c3)nn2)c(OC)c1 | 2.08 µM | > 100 µM | 9.61 µM | > 100 µM | 2.64 µM | > 29 µM | 2.55 µM | > 22.7 µM | 1.47 µM | 13.5 µM | 2.72 µM | > 26.7 µM | 2.18 µM | > 100 µM | 3.19 µM | > 100 µM | 1.36 µM | > 100 µM | 13.4 µM | > 100 µM |
| COc1ccc(/C=C/C(=O)c2ccccc2)cc1OC | 3.72 µM | – | 17.7 µM | 28.7 µM and 35.6 µM | 14.2 µM | 33.2 µM and 28.6 µM | 14.6 µM | 61.2 µM and > 100 µM | 3.86 µM | 22.2 µM and 16.2 µM | 16.4 µM | 53.6 µM and 32.3 µM | 15.8 µM | 50.1 µM and 41.3 µM | 14.3 µM | 32.5 µM and 37.5 µM | 23.2 µM | 25.1 µM and 82 µM | – | 31.7 µM and 31.4 µM |
| Oc1[nH]c2ccccc2c1/C=c1/ccc2c(c1)N=C(c1cc(F)cc(F)c1)N=2 | 2.44 µM | 6.91 µM | 2.63 µM | 17.5 µM | 5.65 µM | 20.7 µM | 12.6 µM | 40.5 µM | 3.6 µM | 16.2 µM | 11.4 µM | 34.5 µM | 4.13 µM | 17.7 µM | 7.04 µM | 22.8 µM | 3.37 µM | 16.7 µM | 10.6 µM | 26.4 µM |
| CCN(CC)CCNC(=O)C(Cl)=C1C(Cl)=C(Cl)C(Cl)=C1Cl | 3.15 µM | > 100 µM | 6.44 µM | > 100 µM | 8.08 µM | 22.8 µM | 3.35 µM | 7.06 µM | 3.49 µM | 12.2 µM | 4.08 µM | 35.8 µM | 5.44 µM | 26.5 µM | 2.71 µM | 11.1 µM | 4.23 µM | 41.3 µM | 2.49 µM | 11.7 µM |
| CCCCC1N=CNc2c1ccc1c2[nH]c2ccccc21 (stereo not drawn) | – | 5.89 µM | – | 21.6 µM | – | 3.01 µM | – | 3.68 µM | – | 3.95 µM | – | > 61.1 µM | – | 11 µM | – | 4.22 µM | – | 3.23 µM | – | 3.3 µM |
| CCCCCCn1c2c(c3c(O)cccc31)C(=O)c1ccccc1-2 | 23.2 µM | 50 µM | 20.1 µM | 43.5 µM | 15.7 µM | 29.4 µM | 18.7 µM | 63.6 µM | 35.6 µM | > 100 µM | 21.6 µM | 39.7 µM | 18.4 µM | 34.7 µM | 17.6 µM | 35.8 µM | 19.6 µM | 36.6 µM | 15.1 µM | 32.9 µM |
| NNc1ncnc2cccc(Cl)c12 | – | > 100 µM | – | 32 µM | – | > 100 µM | – | > 100 µM | – | > 100 µM | – | > 100 µM | – | > 100 µM | – | > 100 µM | – | > 100 µM | – | > 100 µM |
| COC1/C=C/OC2(C)Oc3c(C)c(O)c4c(O)c(c(C=NOC(c5ccccc5)c5ccccc5)c(O)c4c3C2=O)NC(=O)/C(C)=C/C=C/C(C)C(O)C(C)C(O)C(C)C(OC(C)=O)C1C (stereo not drawn) | 0.42 µM | 3.62 µM | 1.82 µM | 7.67 µM | 0.97 µM | 1.93 µM | 1.84 µM | 3.83 µM | 1.01 µM | 2.13 µM | 1.74 µM | 8.76 µM | 1.48 µM | 5.43 µM | 1.05 µM | 2.18 µM | 1.34 µM | 4.15 µM | 1.14 µM | 3.08 µM |
| CN1c2ccccc2S(=O)(=O)n2c(COc3ccccc3)nnc21 | – | > 100 µM | – | > 100 µM | – | > 100 µM | – | > 100 µM | – | > 100 µM | – | > 100 µM | – | > 100 µM | – | > 100 µM | – | > 100 µM | – | > 100 µM |
| C=C(C)C1CCC2(C(=O)O)CCC3(C)C(CCC4C5(C)CCC(O)C(C)(C)C5CCC43C)C12 (stereo not drawn) | – | 36.5 µM | – | 44.9 µM | – | 24.7 µM | – | 10.5 µM | – | 23.9 µM | – | 40.9 µM | – | 12.7 µM | – | 39 µM | – | 23.8 µM | – | 21.8 µM |
